Results: patent US6670348B1, “Methods and compositions for destruction of selected proteins” (Sloan-Kettering Institute for Cancer Research, priority 1997, dated 2003)

Legend:
[1] = system: PI3 kinase; test: Inhibition of PI3 kinase activity; assay type: biochemical; settings: FIG. 12
[2] = system: Raf-1; test: Relative activity of FIG. 9A-9G compounds; assay type: cell-based; design: key: ++++: most active; −: minimal activity; settings: Table 4
Excerpt: The compounds of FIGS. 9A-9G have been tested for activity with respect to erbB2 (Her2), raf-1 and estrogen receptors.

[3] = system: ErbB2; test: Immunoblotting for receptor presence in MCF-7 cells exposed to compound; assay type: cell-based; design: key: +: the receptor was detected by immunoblotting; −: it was not detectable; ±: a weak or equivocal result
[4] = system: androgen receptor; test: Immunoblotting for receptor presence in LNCaP prostate cancer cells; assay type: cell-based; design: key to androgen receptor detected by immunoblotting: +: the receptor was detected by immunoblotting; −: it was not detectable; ±: a weak or equivocal result; settings: for androgen receptor detected by immunoblotting: Table 3
[5] = system: ErbB2; test: as above; assay type: cell-based; design: key: +: the receptor was detected by immunoblotting; −: it was not detectable; ±: a weak or equivocal result; settings: Table 3
[6] = system: Raf-1; test: Immunoblotting for receptor presence in MCF-7 cells exposed to compound; assay type: cell-based; design: key: +: the receptor was detected by immunoblotting; −: it was not detectable; ±: a weak or equivocal result
[7] = system: insulin-like growth factor 1 receptor (IGF1-R); test: as above; assay type: cell-based; design: key to IGFI-R detected by immunoblotting: +: the receptor was detected by immunoblotting; −: it was not detectable; ±: a weak or equivocal result; settings: for IGFI-R detected by immunoblotting: Table 2
[8] = molecular target: T1, estrogen receptor (Homo sapiens, UniProt P03372); test: Relative activity of FIG. 9A-9G compounds; assay type: cell-based; design: key to the marks not given beside the values; settings: Table 4
T1 construct: testing for the presence of the receptor using receptor-specific antibodies in an immunoblotting experiment; endogenous in cells; host or cells: MCF-7
T1 sequence (P03372 whole entry): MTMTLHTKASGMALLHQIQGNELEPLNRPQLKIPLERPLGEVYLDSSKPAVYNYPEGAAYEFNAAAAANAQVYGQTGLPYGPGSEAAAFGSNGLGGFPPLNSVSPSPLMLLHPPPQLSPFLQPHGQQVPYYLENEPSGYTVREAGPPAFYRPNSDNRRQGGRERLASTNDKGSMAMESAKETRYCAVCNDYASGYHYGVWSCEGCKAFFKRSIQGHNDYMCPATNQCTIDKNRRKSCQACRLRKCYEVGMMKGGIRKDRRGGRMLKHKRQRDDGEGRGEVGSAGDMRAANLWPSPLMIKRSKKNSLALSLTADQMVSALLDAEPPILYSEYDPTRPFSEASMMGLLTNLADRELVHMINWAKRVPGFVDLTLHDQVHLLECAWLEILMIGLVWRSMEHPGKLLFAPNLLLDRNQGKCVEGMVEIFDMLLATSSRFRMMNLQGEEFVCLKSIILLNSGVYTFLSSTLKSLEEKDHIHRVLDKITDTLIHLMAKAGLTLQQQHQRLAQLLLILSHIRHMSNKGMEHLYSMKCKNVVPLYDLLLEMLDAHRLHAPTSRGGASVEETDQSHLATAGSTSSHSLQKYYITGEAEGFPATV

[9] = molecular target: T1, estrogen receptor; test: Immunoblotting for receptor presence in MCF-7 cells exposed to compound; assay type: cell-based
Method: (§1) The effects of these compounds on receptor of various types were evaluated by exposing MCF-7 breast cancer cells, in vitro, to 1 μM levels of the compounds for varying periods of time, and then testing for the presence of the receptor using receptor-specific antibodies in an immunoblotting experiment.

[10] = system: estrogen receptors and ErbB2 receptors; test: Selectivity across receptor panel, immunoblotting in MCF-7 cells; assay type: cell-based; settings: 1 μM
Method: as §1, with “experiment. The results are summarized in Table 1, where GM-4-E2 indicates a geldanamycin-estradiol compound with a 4-carbon tether.” for “experiment.”

[11] = system: ErbB2; test: Immunoblotting of LN-CAP cells exposed to GM or GM-T (Example 2); assay type: cell-based; settings: immunoblotting over time, geldanamycin at 0.25 and 1 ug/ml, FIG. 8A
[12] = MCF-7 cells, 1 μM, exposure time 0 hours, Table 1
[13] = MCF-7 cells, 1 μM, exposure time 3 hours, Table 1
[14] = MCF-7 cells, 1 μM, exposure time 6 hours, Table 1
[15] = MCF-7 cells, 1 μM, exposure time 12 hours, Table 1
[16] = MCF-7 cells, 1 μM, exposure time 24 hours, Table 1
[17] = repeat experiment (Example 5), exposure time 0 hours, Table 2
[18] = repeat experiment (Example 5), exposure time 6 hours, Table 2
[19] = repeat experiment (Example 5), exposure time 12 hours, Table 2
[20] = repeat experiment (Example 5), exposure time 24 hours, Table 2
[21] = Example 5, exposure time 0 hours
[22] = Example 5, exposure time 6 hours
[23] = Example 5, exposure time 12 hours
[24] = Example 5, exposure time 24 hours

CCCCCCN(C)C=C1C(=O)OC(COC)C2(C)C1=C(O)C(=O)C1=C2C(OC(C)=O)CC2(C)C(=O)CCC12 (stereo not drawn) [E-analog 2]
inhibition of PI3 kinase activity [1]: inhibits PI3 kinase activity

COC1C=CC=C(C)C(=O)NC2=CC(=O)C(NCCCCCCC3(O)CCC4C5CCc6cc(O)ccc6C5CCC43C)=C(CC(C)CC(OC)C(O)C(C)C=C(C)C1OC(N)=O)C2=O (stereo not drawn) [FIG. 9E]
relative activity, raf-1 [2]: −

COC1C=CC=C(C)C(=O)NC2=CC(=O)C(NCCCCNCCCCCCC3(O)CCC4C5CCc6cc(O)ccc6C5CCC43C)=C(CC(C)CC(OC)C(O)C(C)C=C(C)C1OC(N)=O)C2=O (stereo not drawn) [FIG. 9F]
relative activity, raf-1 [2]: −

COC1C=CC=C(C)C(=O)NC2=CC(=O)C(NCCCCCCN(C)CCCCCCC3(O)CCC4C5CCc6cc(O)ccc6C5CCC43C)=C(CC(C)CC(OC)C(O)C(C)C=C(C)C1OC(N)=O)C2=O (stereo not drawn) [FIG. 9G]
relative activity, raf-1 [2]: −

COC1=C2C[C@@H](C)C[C@H](OC)[C@H](O)[C@@H](C)/C=C(\C)[C@H](OC(N)=O)[C@@H](OC)/C=C\C=C(/C)C(=O)NC(=CC1=O)C2=O [GM, geldanamycin, reference compound]
ErbB2 detected by immunoblotting [3, 12]: + | ErbB2 detected by immunoblotting [3, 13]: − | ErbB2 detected by immunoblotting [3, 14]: − | ErbB2 detected by immunoblotting [3, 15]: − | ErbB2 detected by immunoblotting [3, 16]: − | ErbB2 detected by immunoblotting [3, 17]: + | ErbB2 detected by immunoblotting [3, 18]: − | ErbB2 detected by immunoblotting [3, 19]: − | ErbB2 detected by immunoblotting [3, 20]: − | androgen receptor detected by immunoblotting ([4]; exposure time 0 hours): + | androgen receptor detected by immunoblotting ([4]; exposure time 3 hours): + | androgen receptor detected by immunoblotting ([4]; exposure time 6 hours): + | androgen receptor detected by immunoblotting ([4]; exposure time 12 hours): + | androgen receptor detected by immunoblotting ([4]; exposure time 24 hours): − | ErbB2 detected by immunoblotting ([5]; exposure time 0 hours): + | ErbB2 detected by immunoblotting ([5]; exposure time 3 hours): + | ErbB2 detected by immunoblotting ([5]; exposure time 6 hours): − | ErbB2 detected by immunoblotting ([5]; exposure time 12 hours): − | ErbB2 detected by immunoblotting ([5]; exposure time 24 hours): − | Raf-1 detected by immunoblotting [6, 12]: + | Raf-1 detected by immunoblotting [6, 13]: + | Raf-1 detected by immunoblotting [6, 14]: + | Raf-1 detected by immunoblotting [6, 15]: − | Raf-1 detected by immunoblotting [6, 16]: − | Raf-1 detected by immunoblotting [6, 17]: + | Raf-1 detected by immunoblotting [6, 18]: + | Raf-1 detected by immunoblotting [6, 19]: − | Raf-1 detected by immunoblotting [6, 20]: − | IGFI-R detected by immunoblotting [7, 21]: + | IGFI-R detected by immunoblotting [7, 22]: + | IGFI-R detected by immunoblotting [7, 23]: + | IGFI-R detected by immunoblotting [7, 24]: −

COC1C=CC=C(C)C(=O)NC2=CC(=O)C(NCC=CCC3CC4C5CCc6cc(O)ccc6C5CCC4(C)C3O)=C(CC(C)CC(OC)C(O)C(C)C=C(C)C1OC(N)=O)C2=O (stereo not drawn) [GM-4-E2]
ErbB2 detected by immunoblotting [3, 12]: + | ErbB2 detected by immunoblotting [3, 13]: ± | ErbB2 detected by immunoblotting [3, 14]: − | ErbB2 detected by immunoblotting [3, 15]: − | ErbB2 detected by immunoblotting [3, 16]: − | ErbB2 detected by immunoblotting [3, 17]: + | ErbB2 detected by immunoblotting [3, 18]: ± | ErbB2 detected by immunoblotting [3, 19]: − | ErbB2 detected by immunoblotting [3, 20]: − | androgen receptor detected by immunoblotting ([4]; exposure time 0 hours): + | androgen receptor detected by immunoblotting ([4]; exposure time 3 hours): + | androgen receptor detected by immunoblotting ([4]; exposure time 6 hours): + | androgen receptor detected by immunoblotting ([4]; exposure time 12 hours): + | androgen receptor detected by immunoblotting ([4]; exposure time 24 hours): + | destruction of androgen receptors ([4]; in words): does not | relative activity, raf-1 [2]: − | ErbB2 detected by immunoblotting ([5]; exposure time 0 hours): + | ErbB2 detected by immunoblotting ([5]; exposure time 3 hours): + | ErbB2 detected by immunoblotting ([5]; exposure time 6 hours): + | ErbB2 detected by immunoblotting ([5]; exposure time 12 hours): − | ErbB2 detected by immunoblotting ([5]; exposure time 24 hours): − | relative activity, estrogen receptor [8]: ++++ | Raf-1 detected by immunoblotting [6, 12]: + | Raf-1 detected by immunoblotting [6, 13]: + | Raf-1 detected by immunoblotting [6, 14]: + | Raf-1 detected by immunoblotting [6, 15]: + | Raf-1 detected by immunoblotting [6, 16]: + | Raf-1 detected by immunoblotting [6, 17]: + | Raf-1 detected by immunoblotting [6, 18]: + | Raf-1 detected by immunoblotting [6, 19]: + | Raf-1 detected by immunoblotting [6, 20]: + | estrogen receptor detected by immunoblotting [9, 12]: + | estrogen receptor detected by immunoblotting [9, 13]: ± | estrogen receptor detected by immunoblotting [9, 14]: − | estrogen receptor detected by immunoblotting [9, 15]: − | estrogen receptor detected by immunoblotting [9, 16]: − | estrogen receptor detected by immunoblotting [9, 17]: + | estrogen receptor detected by immunoblotting [9, 18]: − | estrogen receptor detected by immunoblotting [9, 19]: − | estrogen receptor detected by immunoblotting [9, 20]: − | IGFI-R detected by immunoblotting [7, 21]: + | IGFI-R detected by immunoblotting [7, 22]: + | IGFI-R detected by immunoblotting [7, 23]: + | IGFI-R detected by immunoblotting [7, 24]: + | effect on IGF1-R compared with geldanamycin alone ([7]; Example 5, in words): less injurious to IGF1-R than geldanamycin alone | selectivity for estrogen receptors and ErbB2 receptors compared to geldanamycin alone [10]: most pronounced

COC1C=CC=C(C)C(=O)NC2=CC(=O)C(NCCCCNCCCCCCC3(O)CCC4C5CCc6cc(O)ccc6C5CCC43C)=C(CC(C)CC(OC)C(O)C(C)C=C(C)C1OC(N)=O)C2=O (stereo not drawn) [GM-10-E2]
ErbB2 detected by immunoblotting [3, 12]: + | ErbB2 detected by immunoblotting [3, 13]: + | ErbB2 detected by immunoblotting [3, 14]: + | ErbB2 detected by immunoblotting [3, 15]: + | ErbB2 detected by immunoblotting [3, 16]: − | Raf-1 detected by immunoblotting [6, 12]: + | Raf-1 detected by immunoblotting [6, 13]: + | Raf-1 detected by immunoblotting [6, 14]: + | Raf-1 detected by immunoblotting [6, 15]: + | Raf-1 detected by immunoblotting [6, 16]: + | estrogen receptor detected by immunoblotting [9, 12]: + | estrogen receptor detected by immunoblotting [9, 13]: + | estrogen receptor detected by immunoblotting [9, 14]: + | estrogen receptor detected by immunoblotting [9, 15]: ± | estrogen receptor detected by immunoblotting [9, 16]: +

COC1C=CC=C(C)C(=O)NC2=CC(=O)C(NCCCCCCN(C)CCCCCCC3(O)CCC4C5CCc6cc(O)ccc6C5CCC43C)=C(CC(C)CC(OC)C(O)C(C)C=C(C)C1OC(N)=O)C2=O (stereo not drawn) [GM-13-E2]
ErbB2 detected by immunoblotting [3, 12]: + | ErbB2 detected by immunoblotting [3, 13]: + | ErbB2 detected by immunoblotting [3, 14]: + | ErbB2 detected by immunoblotting [3, 15]: + | ErbB2 detected by immunoblotting [3, 16]: − | Raf-1 detected by immunoblotting [6, 12]: + | Raf-1 detected by immunoblotting [6, 13]: + | Raf-1 detected by immunoblotting [6, 14]: + | Raf-1 detected by immunoblotting [6, 15]: + | Raf-1 detected by immunoblotting [6, 16]: + | estrogen receptor detected by immunoblotting [9, 12]: + | estrogen receptor detected by immunoblotting [9, 13]: + | estrogen receptor detected by immunoblotting [9, 14]: + | estrogen receptor detected by immunoblotting [9, 15]: ± | estrogen receptor detected by immunoblotting [9, 16]: −

COC1C=CC=C(C)C(=O)NC2=CC(=O)C(NCCCCCCC#CC3(O)CCC4C5CCC6=CC(=O)CCC6(C)C5CCC43C)=C(CC(C)CC(OC)C(O)C(C)C=C(C)C1OC(N)=O)C2=O (stereo not drawn) [GM-T, 17-testosterone-tethered-17-demethoxy-17-GM]
reduction of levels of ErbB2 [11]: the least reduction was observed

CCCCCCNC=C1C(=O)OC(COC)C2(C)C1=C(O)C(=O)C1=C2C(OC(C)=O)CC2(C)C(=O)CCC12 (stereo not drawn) [Z-analog 1]
inhibition of PI3 kinase activity [1]: inactive
